Values joined by “and” are separate entries in the source; they are usually repeats but may differ in a detail not shown here. Identical values can stand only once. Like-named read-outs stand apart in the source and are kept apart here.

The results in this text go back to publication doi:10.1101/2024.08.19.608619, “Discovery of potent SARS-CoV-2 nsp3 macrodomain inhibitors uncovers lack of translation to cellular antiviral response” (bioRxiv, 2024).

The target in data set [1] is KDR(h) (Homo sapiens, UniProt P35968). Briefly: biochemical. Details: In vitro kinase panel profiling, per cent remaining kinase activity at 10 uM. To be noted: atp_concentration=90, read-out: % of control remaining. An excerpt:
(§1) We derisk potential for off-target activity by profiling the compound in a CEREP panel, a standard secondary pharmacology assessment, as well as a kinase panel to derisk a potential hinge-binding motif in our leads, and a PARP panel to derisk activity against human […]. Reassuringly, the compounds are selective, with the only off-targets being moderate human CHRM2 and KOR receptors activity associated with ASAP-0011198.

Data set [2] deals with T1, CaMKI(h) (Homo sapiens, UniProt Q14012).
T1 construct: gene CAMK1
T1 sequence (Q14012 whole entry): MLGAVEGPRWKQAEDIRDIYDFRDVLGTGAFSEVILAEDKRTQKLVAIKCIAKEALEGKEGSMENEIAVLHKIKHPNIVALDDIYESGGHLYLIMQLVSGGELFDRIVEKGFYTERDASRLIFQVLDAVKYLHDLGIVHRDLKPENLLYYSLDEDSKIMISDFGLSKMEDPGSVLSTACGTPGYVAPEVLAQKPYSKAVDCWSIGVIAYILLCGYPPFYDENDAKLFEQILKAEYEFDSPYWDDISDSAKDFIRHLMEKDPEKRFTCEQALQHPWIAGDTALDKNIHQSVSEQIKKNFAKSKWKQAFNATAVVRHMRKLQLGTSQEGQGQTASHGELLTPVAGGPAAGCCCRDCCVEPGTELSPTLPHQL
Kind of data set: biochemical. Details: In vitro kinase panel profiling, per cent remaining kinase activity at 10 uM. To be noted: atp_concentration=200, read-out: % of control remaining.
Source text: as §1

The target of data set [3] is T2, PI3 Kinase (p120γ)(h) (Homo sapiens, UniProt P48736).
T2 construct: gene PIK3CG
Briefly: biochemical. To be noted: atp_concentration=100, read-out: % of control remaining. Details: In vitro kinase panel profiling, per cent remaining kinase activity at 10 uM.
Source text: as §1

For data set [4], the target named is mTOR(h) (Homo sapiens, UniProt P42345). Briefly: biochemical. Details: In vitro kinase panel profiling, per cent remaining kinase activity at 10 uM. As to conditions: atp_concentration=70, read-out: % of control remaining.
Source text: as §1

In data set [5] the target is T3, c-RAF(h) (Homo sapiens, UniProt P04049).
T3 construct: gene RAF1
Briefly: biochemical. Details: In vitro kinase panel profiling, per cent remaining kinase activity at 10 uM. To be noted: atp_concentration=120, read-out: % of control remaining.
Source text: as §1

Data set [6] has as its target T4, CK2α2(h) (Homo sapiens, UniProt P19784).
T4 construct: gene CSNK2A2
Briefly: biochemical. Details: In vitro kinase panel profiling, per cent remaining kinase activity at 10 uM. To be noted: atp_concentration=10, read-out: % of control remaining.
Source text: as §1

Data set [7] addresses CDK9/cyclin T1(h) (Homo sapiens, UniProt P50750). Briefly: biochemical. Details: In vitro kinase panel profiling, per cent remaining kinase activity at 10 uM. As to conditions: atp_concentration=45, read-out: % of control remaining.
Source text: as §1

Data set [8] has as its target CDK7/cyclinH/MAT1(h) (Homo sapiens, UniProt P50613). Kind of data set: biochemical. Also noted: In vitro kinase panel profiling, per cent remaining kinase activity at 10 uM. To be noted: atp_concentration=90, read-out: % of control remaining.
Source text: as §1

The target in data set [9] is EphA5(h) (Homo sapiens, UniProt P54756). Briefly: biochemical. Also noted: In vitro kinase panel profiling, per cent remaining kinase activity at 10 uM. As to conditions: atp_concentration=10, read-out: % of control remaining.
EphA5(h), sequence (P54756 whole entry): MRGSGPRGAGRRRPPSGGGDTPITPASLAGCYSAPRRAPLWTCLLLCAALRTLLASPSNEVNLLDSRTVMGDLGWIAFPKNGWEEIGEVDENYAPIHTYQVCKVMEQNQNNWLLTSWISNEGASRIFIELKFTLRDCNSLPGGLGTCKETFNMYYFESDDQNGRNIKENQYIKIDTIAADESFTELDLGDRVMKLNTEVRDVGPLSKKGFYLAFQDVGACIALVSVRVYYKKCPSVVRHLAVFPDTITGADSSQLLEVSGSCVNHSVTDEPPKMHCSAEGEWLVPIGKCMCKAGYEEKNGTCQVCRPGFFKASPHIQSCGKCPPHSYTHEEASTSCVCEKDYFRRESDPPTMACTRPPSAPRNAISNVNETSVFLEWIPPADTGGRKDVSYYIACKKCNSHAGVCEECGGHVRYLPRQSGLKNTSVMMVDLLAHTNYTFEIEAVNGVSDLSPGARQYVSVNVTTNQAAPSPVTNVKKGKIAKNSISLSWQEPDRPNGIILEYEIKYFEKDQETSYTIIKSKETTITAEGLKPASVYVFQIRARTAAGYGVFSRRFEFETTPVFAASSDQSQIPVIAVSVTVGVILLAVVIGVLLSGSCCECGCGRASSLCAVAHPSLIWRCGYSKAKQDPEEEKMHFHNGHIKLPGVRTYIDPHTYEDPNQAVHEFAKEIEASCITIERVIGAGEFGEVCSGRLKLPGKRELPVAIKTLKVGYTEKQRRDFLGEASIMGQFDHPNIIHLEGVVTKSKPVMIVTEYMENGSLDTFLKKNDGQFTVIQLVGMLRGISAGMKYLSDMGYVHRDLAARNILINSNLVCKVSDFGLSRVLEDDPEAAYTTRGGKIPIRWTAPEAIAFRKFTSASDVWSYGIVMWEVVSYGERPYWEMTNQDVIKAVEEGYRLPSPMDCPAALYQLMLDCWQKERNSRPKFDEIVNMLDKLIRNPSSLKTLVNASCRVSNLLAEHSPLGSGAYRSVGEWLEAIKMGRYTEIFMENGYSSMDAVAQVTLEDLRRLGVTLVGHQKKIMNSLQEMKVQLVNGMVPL
Source text: as §1

Data set [10] concerns the target Fyn(h) (Homo sapiens, UniProt P06241). Briefly: biochemical. Also noted: In vitro kinase panel profiling, per cent remaining kinase activity at 10 uM. As to conditions: atp_concentration=70, read-out: % of control remaining.
Source text: as §1

In data set [11] the target is T5, CK1γ1(h) (Homo sapiens, UniProt Q9HCP0).
T5 construct: gene CSNK1G1
T5 sequence (Q9HCP0 whole entry): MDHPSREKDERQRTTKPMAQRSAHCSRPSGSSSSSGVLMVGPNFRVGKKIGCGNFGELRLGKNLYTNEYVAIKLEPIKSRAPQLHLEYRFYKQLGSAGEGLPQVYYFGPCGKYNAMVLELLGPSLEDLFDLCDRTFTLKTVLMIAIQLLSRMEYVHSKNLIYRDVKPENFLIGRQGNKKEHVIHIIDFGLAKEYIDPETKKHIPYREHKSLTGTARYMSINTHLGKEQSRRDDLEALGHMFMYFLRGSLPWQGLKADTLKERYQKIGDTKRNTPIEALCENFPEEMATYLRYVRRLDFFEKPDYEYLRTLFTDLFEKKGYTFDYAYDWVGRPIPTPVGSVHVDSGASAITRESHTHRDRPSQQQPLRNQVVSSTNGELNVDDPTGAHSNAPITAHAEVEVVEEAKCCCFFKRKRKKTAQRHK
Kind of data set: biochemical. As to conditions: atp_concentration=15, read-out: % of control remaining. Details: In vitro kinase panel profiling, per cent remaining kinase activity at 10 uM.
Source text: as §1

For data set [12], the target named is T6, MLK1(h) (Homo sapiens, UniProt P80192).
T6 construct: gene MAP3K9
T6 sequence (P80192 whole entry): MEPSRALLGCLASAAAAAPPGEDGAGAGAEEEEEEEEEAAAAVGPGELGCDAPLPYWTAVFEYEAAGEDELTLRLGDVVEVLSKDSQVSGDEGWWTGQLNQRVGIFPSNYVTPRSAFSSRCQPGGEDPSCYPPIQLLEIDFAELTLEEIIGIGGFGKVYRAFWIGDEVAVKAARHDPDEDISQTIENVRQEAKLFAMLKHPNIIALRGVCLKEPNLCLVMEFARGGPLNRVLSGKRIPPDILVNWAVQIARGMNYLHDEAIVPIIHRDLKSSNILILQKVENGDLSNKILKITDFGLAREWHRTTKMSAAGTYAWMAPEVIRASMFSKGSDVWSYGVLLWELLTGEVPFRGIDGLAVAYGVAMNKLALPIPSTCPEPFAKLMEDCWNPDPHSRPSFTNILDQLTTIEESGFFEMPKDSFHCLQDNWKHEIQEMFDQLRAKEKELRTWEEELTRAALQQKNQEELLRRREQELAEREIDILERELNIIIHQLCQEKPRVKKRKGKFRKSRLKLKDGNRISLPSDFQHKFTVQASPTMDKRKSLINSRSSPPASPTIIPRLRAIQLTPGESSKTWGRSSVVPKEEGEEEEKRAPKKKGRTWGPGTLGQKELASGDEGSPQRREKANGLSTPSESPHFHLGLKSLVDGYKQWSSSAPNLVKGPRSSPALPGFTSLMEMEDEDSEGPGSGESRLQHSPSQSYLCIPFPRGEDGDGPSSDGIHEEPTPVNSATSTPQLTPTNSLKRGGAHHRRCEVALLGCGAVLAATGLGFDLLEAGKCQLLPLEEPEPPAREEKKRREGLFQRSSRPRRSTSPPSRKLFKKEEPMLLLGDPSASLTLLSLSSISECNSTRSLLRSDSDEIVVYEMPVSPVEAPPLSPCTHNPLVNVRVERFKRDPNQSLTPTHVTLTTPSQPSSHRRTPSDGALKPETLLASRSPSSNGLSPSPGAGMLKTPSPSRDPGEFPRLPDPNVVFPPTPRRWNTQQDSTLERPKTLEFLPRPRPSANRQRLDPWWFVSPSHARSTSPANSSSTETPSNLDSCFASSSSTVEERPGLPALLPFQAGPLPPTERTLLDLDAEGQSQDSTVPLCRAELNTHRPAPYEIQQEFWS
Kind of data set: biochemical. As to conditions: atp_concentration=45, read-out: % of control remaining. Also noted: In vitro kinase panel profiling, per cent remaining kinase activity at 10 uM.
Source text: as §1

Data set [13] has as its target T7, CHK1(h) (Homo sapiens, UniProt O14757).
T7 construct: gene CHEK1
T7 sequence (O14757 1-476): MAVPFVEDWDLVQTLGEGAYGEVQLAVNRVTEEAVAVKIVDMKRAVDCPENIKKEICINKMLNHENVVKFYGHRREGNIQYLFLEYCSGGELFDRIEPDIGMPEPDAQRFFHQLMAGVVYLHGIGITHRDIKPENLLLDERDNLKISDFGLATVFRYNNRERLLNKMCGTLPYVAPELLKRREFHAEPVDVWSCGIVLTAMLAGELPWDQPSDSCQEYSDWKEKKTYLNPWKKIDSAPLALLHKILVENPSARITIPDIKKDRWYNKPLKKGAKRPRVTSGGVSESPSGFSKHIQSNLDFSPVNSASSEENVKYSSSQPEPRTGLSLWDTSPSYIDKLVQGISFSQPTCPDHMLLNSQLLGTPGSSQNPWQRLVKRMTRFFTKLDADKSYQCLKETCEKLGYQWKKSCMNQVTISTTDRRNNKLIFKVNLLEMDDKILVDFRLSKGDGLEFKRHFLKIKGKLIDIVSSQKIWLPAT
Kind of data set: biochemical. To be noted: atp_concentration=90, read-out: % of control remaining. Also noted: In vitro kinase panel profiling, per cent remaining kinase activity at 10 uM.
Source text: as §1

For data set [14], the target named is T8, IGF-1R(h) (Homo sapiens, UniProt P08069).
T8 construct: gene IGF1R
T8 sequence (P08069 whole entry): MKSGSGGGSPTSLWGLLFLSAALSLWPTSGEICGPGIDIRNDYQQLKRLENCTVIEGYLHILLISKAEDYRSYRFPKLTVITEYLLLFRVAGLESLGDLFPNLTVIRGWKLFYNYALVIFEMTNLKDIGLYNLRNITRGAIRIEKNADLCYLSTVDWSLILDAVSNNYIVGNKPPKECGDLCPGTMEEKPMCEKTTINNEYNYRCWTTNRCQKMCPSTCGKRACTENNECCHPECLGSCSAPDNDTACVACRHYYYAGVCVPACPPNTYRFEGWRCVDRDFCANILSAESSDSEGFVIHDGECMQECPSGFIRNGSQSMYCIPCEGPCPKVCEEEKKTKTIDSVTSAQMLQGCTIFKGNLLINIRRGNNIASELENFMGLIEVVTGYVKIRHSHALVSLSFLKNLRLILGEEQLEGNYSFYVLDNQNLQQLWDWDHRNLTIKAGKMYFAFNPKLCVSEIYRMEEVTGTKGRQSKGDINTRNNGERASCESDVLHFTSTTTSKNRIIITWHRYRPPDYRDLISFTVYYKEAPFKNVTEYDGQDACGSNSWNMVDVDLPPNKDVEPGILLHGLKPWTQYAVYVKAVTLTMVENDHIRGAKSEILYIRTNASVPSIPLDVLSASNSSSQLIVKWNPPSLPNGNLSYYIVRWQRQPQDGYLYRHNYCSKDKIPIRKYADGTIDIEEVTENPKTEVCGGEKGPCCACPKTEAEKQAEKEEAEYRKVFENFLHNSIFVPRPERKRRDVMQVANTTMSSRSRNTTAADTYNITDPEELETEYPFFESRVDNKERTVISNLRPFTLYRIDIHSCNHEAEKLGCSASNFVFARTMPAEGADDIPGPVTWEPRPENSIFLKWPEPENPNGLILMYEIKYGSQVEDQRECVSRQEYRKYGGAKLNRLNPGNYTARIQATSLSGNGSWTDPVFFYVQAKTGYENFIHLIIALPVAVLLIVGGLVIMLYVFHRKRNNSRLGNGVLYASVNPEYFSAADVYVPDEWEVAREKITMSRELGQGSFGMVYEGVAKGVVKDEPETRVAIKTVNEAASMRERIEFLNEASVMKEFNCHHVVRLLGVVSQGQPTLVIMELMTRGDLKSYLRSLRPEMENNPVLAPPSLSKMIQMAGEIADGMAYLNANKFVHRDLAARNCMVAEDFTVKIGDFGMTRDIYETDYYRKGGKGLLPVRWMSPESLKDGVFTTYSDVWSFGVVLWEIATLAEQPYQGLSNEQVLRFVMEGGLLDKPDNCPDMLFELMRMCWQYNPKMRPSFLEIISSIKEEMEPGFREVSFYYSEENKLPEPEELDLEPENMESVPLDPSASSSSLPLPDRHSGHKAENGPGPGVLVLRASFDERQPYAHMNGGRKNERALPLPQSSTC
Kind of data set: biochemical. To be noted: atp_concentration=200, read-out: % of control remaining. Also noted: In vitro kinase panel profiling, per cent remaining kinase activity at 10 uM.
Source text: as §1

Data set [15] concerns the target EGFR(h) (Homo sapiens, UniProt P00533). Kind of data set: biochemical. Also noted: In vitro kinase panel profiling, per cent remaining kinase activity at 10 uM. To be noted: atp_concentration=10, read-out: % of control remaining.
Source text: as §1

Data set [16] addresses PAK2(h) (Homo sapiens, UniProt Q13177). Briefly: biochemical. Also noted: In vitro kinase panel profiling, per cent remaining kinase activity at 10 uM. To be noted: atp_concentration=90, read-out: % of control remaining.
Source text: as §1

Data set [17] has as its target T9, ROCK-I(h) (Homo sapiens, UniProt Q13464).
T9 construct: gene ROCK1
Kind of data set: biochemical. Details: In vitro kinase panel profiling, per cent remaining kinase activity at 10 uM. As to conditions: atp_concentration=70, read-out: % of control remaining.
Source text: as §1

Data set [18] in a line: Permeability Papp (AB) MDR1/MDCKII. To be noted: for perc_recovery_a_to_b_mean / perc_recovery_a_to_b_inhibitor_mean: recovery A to B; for perc_recovery_b_to_a_mean / perc_recovery_b_to_a_inhibitor_mean: recovery B to A; for perc_recovery_a_to_b_inhibitor_mean / perc_recovery_b_to_a_inhibitor_mean: MDR1-MDCKII; for papp_b_to_a_mean: B to A.
[19] abbreviates: In vitro MDR1-MDCKII permeability, no inhibitor.

Fyn(h), sequence (P06241 whole entry): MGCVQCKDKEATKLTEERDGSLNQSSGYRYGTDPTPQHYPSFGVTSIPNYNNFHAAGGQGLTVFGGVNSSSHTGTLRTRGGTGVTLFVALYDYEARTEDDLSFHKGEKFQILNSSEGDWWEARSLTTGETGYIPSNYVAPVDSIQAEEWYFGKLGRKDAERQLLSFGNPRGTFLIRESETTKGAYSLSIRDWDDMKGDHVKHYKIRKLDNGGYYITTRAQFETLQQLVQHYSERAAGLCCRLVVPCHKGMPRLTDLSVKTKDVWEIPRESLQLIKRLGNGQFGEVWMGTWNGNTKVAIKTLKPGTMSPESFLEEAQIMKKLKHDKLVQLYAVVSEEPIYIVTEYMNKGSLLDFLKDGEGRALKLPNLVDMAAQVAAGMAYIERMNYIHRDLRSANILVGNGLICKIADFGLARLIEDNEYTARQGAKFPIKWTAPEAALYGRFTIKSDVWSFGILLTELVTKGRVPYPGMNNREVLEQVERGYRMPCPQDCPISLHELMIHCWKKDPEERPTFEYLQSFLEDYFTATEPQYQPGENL

With `Cc1nn(C)cc1-c1cc2c(NC(c3ccc4c(c3)S(=O)(=O)CCC4)C(C)C)ncnc2[nH]1` (stereo not shown) [ASAP-0011446], the remaining activity at 10 µM in data set [1] (batch_name=ASAP-0011446-002) came to 88%; in data set [2] (batch_name=ASAP-0011446-002) it was 101%; in data set [3] (batch_name=ASAP-0011446-002), 96%; in [4] (batch_name=ASAP-0011446-002), 96%; in data set [5] (batch_name=ASAP-0011446-002), 93%; in data set [6] (batch_name=ASAP-0011446-002), 92%. The remaining activity at 10 µM in [7] (batch_name=ASAP-0011446-002) is 57%; in data set [8] (batch_name=ASAP-0011446-002) it was 93%; in data set [9] (batch_name=ASAP-0011446-002) it was 74%; in data set [10] (batch_name=ASAP-0011446-002), 32%; in data set [11] (batch_name=ASAP-0011446-002), 99%; in data set [12] (batch_name=ASAP-0011446-002), 79%. Further, the remaining activity at 10 µM in [13] (batch_name=ASAP-0011446-002) amounted to 102%; in data set [14] (batch_name=ASAP-0011446-002), 97%; in data set [15] (batch_name=ASAP-0011446-002), 87%; in data set [16] (batch_name=ASAP-0011446-002), 100%; in data set [17] (batch_name=ASAP-0011446-002), 103%. Moreover, the papp_a_to_b_mean in data set [18] (In vitro MDR1-MDCKII permeability, A to B, mean) was 4.36 ×10⁻⁶ cm/s. The perc_recovery_a_to_b_mean in [18] (In vitro MDR1-MDCKII permeability, mean) is given as 77.0%; in data set [18] (setting [19]), 69.7%. The same molecule came in with a perc_recovery_b_to_a_mean in data set [18] (setting [19]) of 63.5%. For the same molecule, the perc_recovery_a_to_b_inhibitor_mean in data set [18] (with inhibitor Verapamil) is 87.7%. Besides, the perc_recovery_b_to_a_inhibitor_mean in data set [18] (with inhibitor Verapamil) is reported as 93.0%. The Papp A→B (usually the apparent permeability from the apical to the basolateral side of a cell layer) in [18] (dog, MDCK-MDR1, Papp (AB) MDR1/MDCKII, A to B) is 4.4 ×10⁻⁶ cm/s.

With `C[C@H](C(=O)O)[C@@H](NC(=O)c1ncnc2[nH]ccc12)c1ccc(Br)cc1` [ASAP-0014722], the remaining activity at 10 µM in data set [1] (batch_name=ASAP-0014722-002) is 77%; in [2] (batch_name=ASAP-0014722-002) it was 101%; in data set [3] (batch_name=ASAP-0014722-002), 97%; in [4] (batch_name=ASAP-0014722-002), 100%; in data set [5] (batch_name=ASAP-0014722-002) it was 108%; in [6] (batch_name=ASAP-0014722-002), 91%. Also, the remaining activity at 10 µM was determined as 103% in [7] (batch_name=ASAP-0014722-002); 99% in [8] (batch_name=ASAP-0014722-002); 99% in data set [9] (batch_name=ASAP-0014722-002); 98% in [10] (batch_name=ASAP-0014722-002); 92% in [11] (batch_name=ASAP-0014722-002); 86% in data set [12] (batch_name=ASAP-0014722-002). Further, the remaining activity at 10 µM in data set [13] (batch_name=ASAP-0014722-002) is 99%; in [14] (batch_name=ASAP-0014722-002) it was 95%; in data set [15] (batch_name=ASAP-0014722-002), 93%; in [16] (batch_name=ASAP-0014722-002), 95%; in data set [17] (batch_name=ASAP-0014722-002), 90%. The papp_b_to_a_mean in data set [18] (setting [19]) came to 0.274 ×10⁻⁶ cm/s. The efflux_ratio in data set [18] (setting [19]) is 8.67. For the same molecule, the perc_recovery_a_to_b_mean in data set [18] (setting [19]) is 89.1% and 77.4%. Besides, the perc_recovery_b_to_a_mean in data set [18] (setting [19]) is 87.2%. Besides, in [18] (with inhibitor Cyclosporin A), the perc_recovery_a_to_b_inhibitor_mean is recorded as 80.9%. Also, the perc_recovery_b_to_a_inhibitor_mean in data set [18] (with inhibitor Cyclosporin A) is recorded as 84.1%.

As for `COc1ccc([C@H](Cc2nnn[nH]2)NC(=O)c2ncnc3[nH]ccc23)cc1` [ASAP-0015381], the remaining activity at 10 µM in data set [1] (batch_name=ASAP-0015381-001) amounted to 97%; in [2] (batch_name=ASAP-0015381-001), 103%; in [3] (batch_name=ASAP-0015381-001), 88%; in data set [4] (batch_name=ASAP-0015381-001) it was 97%; in data set [5] (batch_name=ASAP-0015381-001), 103%; in [6] (batch_name=ASAP-0015381-001), 93%. For the same molecule, the remaining activity at 10 µM turned out to be 109% in [7] (batch_name=ASAP-0015381-001); 107% in data set [8] (batch_name=ASAP-0015381-001); 102% in data set [9] (batch_name=ASAP-0015381-001); 102% in data set [10] (batch_name=ASAP-0015381-001); 94% in data set [11] (batch_name=ASAP-0015381-001); 87% in [12] (batch_name=ASAP-0015381-001). Moreover, the remaining activity at 10 µM in [13] (batch_name=ASAP-0015381-001) came out at 110%; in data set [14] (batch_name=ASAP-0015381-001) it was 103%; in [15] (batch_name=ASAP-0015381-001), 97%; in data set [16] (batch_name=ASAP-0015381-001) it was 107%; in [17] (batch_name=ASAP-0015381-001) it was 103%. The molecule also showed a papp_b_to_a_mean in [18] (setting [19]) of 0.021 ×10⁻⁶ cm/s. The efflux_ratio in data set [18] (setting [19]) was 0.67. Further, in data set [18] (setting [19]), the perc_recovery_a_to_b_mean was 87.0% and 68.4%. The molecule also registered a perc_recovery_b_to_a_mean in data set [18] (setting [19]) of 84.4%. For the same molecule, the perc_recovery_a_to_b_inhibitor_mean in [18] (with inhibitor Cyclosporin A) was 83.1%. Further, in [18] (with inhibitor Cyclosporin A), the perc_recovery_b_to_a_inhibitor_mean came to 85.5%.
